{
  "source": "patent US20260266837A1",
  "about": "“Methods for Cancer Recurrence Detection and Treatment Thereof” (Institut Curie, priority 2022, published 2026)",
  "key": {"[1]": {"tested_on": "MDA-MB-468", "experiment": "Prolonged 5-FU treatment, cell proliferation and survival", "assay_type": "cell-based, human", "procedure": "(§1) Cell lines, culture conditions and drug treatments. MDA-MB-468 cells were cultured in DMEM (Gibco-BRL, Ref: 11966025), supplemented with 10% heat-inactivated fetal calf serum (Gibco-BRL, Ref: 10270-106). HCC38 and BT20 cell lines were cultured in RPMI 1640 (Gibco-BRL, Ref: 11875085), supplemented with 10% heat-inactivated fetal calf serum. […] Cells were treated with 5 μM of 5-FU (Sigma, Ref: F6627) alone or in combination with KDM6A/Bi or EZH2i for indicated days. For EZH2i, cells were pretreated with UNC 1999, UNC 2400 or GSK 126 for 10 days before the addition of 5-FU for an additional 21 days (FIG. 4 and Extended FIG. 8)."}, "[2]": {"tested_on": "MDA-MB-468 untreated and chemoresistant cells", "experiment": "XTT cell cytotoxicity, IC50 to 5-FU", "assay_type": "cell-based, human", "settings": "resistant cells after over 15 weeks of 5-FU, 72 h XTT", "procedure": "MDA-MB-468 untreated and chemoresistant cells were plated in 96 multi-well plates at a density of 10,000 cells per well and treated with increased concentration of 5-FU (1 μM to 0.5M) for 72 h. Cell cytotoxicity was assayed with XTT kit (Sigma, Ref: 11465015001) and IC 50 was calculated as the concentration of 5-FU that is required to obtain 50% of cell viability (Extended FIG. 2b)."}, "[3]": {"tested_on": "patient-derived xenograft (PDX) models PDX_95, PDX_39 & PDX_172 established from patients with residual TNBC", "experiment": "Capecitabine treatment of TNBC patient-derived xenograft models", "assay_type": "in vivo, mice", "settings": "oral Capecitabine", "text": "Patient samples and PDX models. Patient samples used in this study (n=9) originated from patient treated at Institut Curie with residual triple-negative breast cancers post-neoadjuvant chemotherapy, who gave informed consent for the profiling. In this study, we used three xenograft models generated from three different residual triple-negative breast cancers post-neoadjuvant chemotherapy (HBCx95 called PDX_95, HBCx39 called PDX_39 and HBCx172 called PDX_172 in the manuscript, see Extended Table2) established previously at Curie Institute with informed consent from the patient^46,47. Female Swiss nude mice were purchased from Charles River Laboratories and maintained under specific-pathogen-free conditions. Mouse care and housing were in accordance with institutional guidelines and the rules of the French Ethics Committee (project authorization no. 02163.02).\nFIG. 1b: Five mice were not treated and kept as controls (termed “untreated”) and twenty-seven mice were treated orally with Capecitabine (Xeloda; Roche Laboratories) at a dose of 540 mg/kg, 5 d/week for 6 to 14 weeks. Relative tumor volumes (mm3) were measured as described previously^18. Eight mice were sacrificed after the first round of chemotherapy to study “residual” tumors (2 mice) or “persister” (6 mice) human tumor cells. […]"}, "[4]": {"tested_on": "MDA-MB-468, BT20 and HCC38", "experiment": "Number of persister cells after EZH2i pre-treatment and 5-FU", "assay_type": "cell-based, human", "settings": "10 days pre-treatment, then 5-FU for 21 days", "procedure": "Cell lines, culture conditions and drug treatments. […] All cell lines were cultured in a humidified 5% CO2 atmosphere at 37° C., and were tested as mycoplasma negative. […] Cells were treated with 5 μM of 5-FU (Sigma, Ref: […]) alone or in combination with KDM6A/Bi or EZH2i for indicated days. […] Cell proliferation, doubling time and IC50. MDA-MB-468, HCC38 and BT20 cells were stained with Trypan Blue (Invitrogen, Ref: T10282) exclusion test, and counted using a Countess automated cell counter (Invitrogen, Ref: C10228) at indicated time of treatment (FIG. 4a and Extended FIG. 8a/d/f)."}, "[5]": {"target": "T1, H3K27me3, EZH2 (Homo sapiens, UniProt Q15910)", "T1 construct": "endogenous in cells; host or cells: MDA-MB-468, HCC38 or BT20", "T1 sequence (Q15910 whole entry)": "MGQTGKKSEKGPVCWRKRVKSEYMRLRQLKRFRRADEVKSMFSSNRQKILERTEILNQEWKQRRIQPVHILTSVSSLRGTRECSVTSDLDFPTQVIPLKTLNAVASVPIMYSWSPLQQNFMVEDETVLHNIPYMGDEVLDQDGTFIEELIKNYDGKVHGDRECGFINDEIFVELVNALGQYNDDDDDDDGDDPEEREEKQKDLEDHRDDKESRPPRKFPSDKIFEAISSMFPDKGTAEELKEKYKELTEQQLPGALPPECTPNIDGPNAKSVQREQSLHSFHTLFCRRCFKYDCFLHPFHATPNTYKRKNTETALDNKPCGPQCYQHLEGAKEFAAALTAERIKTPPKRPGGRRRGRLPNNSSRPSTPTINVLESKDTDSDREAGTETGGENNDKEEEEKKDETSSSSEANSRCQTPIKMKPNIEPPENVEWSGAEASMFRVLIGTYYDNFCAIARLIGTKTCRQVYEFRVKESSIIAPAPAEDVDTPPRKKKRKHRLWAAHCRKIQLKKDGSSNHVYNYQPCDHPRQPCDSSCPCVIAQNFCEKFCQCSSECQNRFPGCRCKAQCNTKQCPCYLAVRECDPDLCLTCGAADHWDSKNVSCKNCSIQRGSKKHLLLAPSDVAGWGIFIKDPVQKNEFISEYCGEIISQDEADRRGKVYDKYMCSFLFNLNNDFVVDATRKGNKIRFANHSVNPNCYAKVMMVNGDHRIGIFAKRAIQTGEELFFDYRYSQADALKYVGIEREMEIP", "T1 sequence (O75530 whole entry partner)": "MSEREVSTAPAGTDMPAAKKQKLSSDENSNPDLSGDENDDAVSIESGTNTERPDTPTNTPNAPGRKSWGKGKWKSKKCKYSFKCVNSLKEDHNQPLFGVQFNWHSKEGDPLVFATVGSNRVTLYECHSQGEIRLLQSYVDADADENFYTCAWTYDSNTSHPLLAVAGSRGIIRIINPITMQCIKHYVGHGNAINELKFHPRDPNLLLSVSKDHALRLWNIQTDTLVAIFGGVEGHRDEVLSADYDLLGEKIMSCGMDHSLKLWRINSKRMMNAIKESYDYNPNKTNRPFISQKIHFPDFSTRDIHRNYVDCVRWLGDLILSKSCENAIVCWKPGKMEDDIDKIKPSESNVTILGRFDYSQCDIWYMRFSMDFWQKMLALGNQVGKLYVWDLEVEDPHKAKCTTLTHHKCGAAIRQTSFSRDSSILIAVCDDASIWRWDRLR", "T1 sequence (Q15022 whole entry partner)": "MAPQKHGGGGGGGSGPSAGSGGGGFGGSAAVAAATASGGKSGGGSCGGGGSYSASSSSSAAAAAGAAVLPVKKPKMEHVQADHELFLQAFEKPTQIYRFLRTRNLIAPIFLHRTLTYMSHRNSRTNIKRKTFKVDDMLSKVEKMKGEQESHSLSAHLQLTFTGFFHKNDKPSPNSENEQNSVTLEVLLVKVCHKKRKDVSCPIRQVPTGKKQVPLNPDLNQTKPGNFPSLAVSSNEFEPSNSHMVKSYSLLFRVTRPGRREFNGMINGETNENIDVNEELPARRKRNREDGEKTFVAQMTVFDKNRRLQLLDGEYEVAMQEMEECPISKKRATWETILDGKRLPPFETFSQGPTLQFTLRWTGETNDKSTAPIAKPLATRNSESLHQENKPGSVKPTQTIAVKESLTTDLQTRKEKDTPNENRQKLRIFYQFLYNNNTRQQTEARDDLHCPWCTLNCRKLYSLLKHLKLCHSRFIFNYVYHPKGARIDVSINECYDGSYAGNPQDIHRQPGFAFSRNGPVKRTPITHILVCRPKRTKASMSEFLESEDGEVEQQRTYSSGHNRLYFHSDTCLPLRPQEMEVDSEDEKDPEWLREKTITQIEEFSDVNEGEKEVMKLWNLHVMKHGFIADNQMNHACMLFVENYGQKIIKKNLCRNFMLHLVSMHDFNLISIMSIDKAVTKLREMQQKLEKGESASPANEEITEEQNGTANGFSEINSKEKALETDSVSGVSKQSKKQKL", "experiment": "Western blotting of EZH2i-treated cells", "assay_type": "cell-based", "settings": "prior to chemotherapy treatment", "procedure": "Western blotting. In Extended FIG. 8b/e/g, DMSO- and EZH2i-treated cells were lysed at 95° C. for 10 minutes in Laemmli buffer (50 mM Tris-HCl [pH 6.8], 2% SDS, 5% glycerol, 2 mM DTT, 2.5 mM EDTA, 2.5 mM EGTA, 4 mM Sodium Orthovanadate, 20 mM Sodium Fluoride, protease inhibitors, phosphatase inhibitors) and proteins concentrations were measured using a Pierce BCA protein Assay Kit (Thermo Fisher Scientific, Ref: 23225/23227). 10 μg of proteins were then separated on a 4-15% Mini-PROTEAN TGX Stain-Free Gel (Bio-Rad, Ref: 4568085) at 160V. After transfer, the membrane was blocked for 1 h at room temperature in PBS pH 7.4 containing 0.1% Tween-20 and 1% milk (Regilait). Incubation anti-H3K27me3 (Dilution: 1:2000, Cell Signaling, Ref: 9733) or EZH2 (Dilution: 1:2000, Cell Signaling, Ref: 5246) or Tubulin (Dilution: 1:1000, Thermo Fisher Scientific, Ref: 31460) primary antibodies diluted in PBS pH 7.4, 0.1% Tween-20 were performed at 4° C. overnight."}, "[6]": {"tested_on": "MDA-MB-468 cells", "experiment": "Lineage barcode frequencies and diversity under 5-FU with EZH2i", "assay_type": "cell-based, human", "settings": "co-treatment with 5-FU, bulk lineage barcodes", "text": "Lentivirus packaging and cell transduction. Lentivirus was produced by transfecting the barcode plasmids pRRL-CMV-GFP-BCv2Ascl and p8.9-QV and pVSVG into HEK293T cells as previously described^30. MDA-MB-468 cells from ATCC were infected at passage 11 with lentivirus produced from the barcode library (pRRL-CMV-GFP-BCv 2Ascl) which includes 18206 different barcodes of 20 bp of a random stretch, at a low multiplicity of infection (MOI 0.1) to minimize the number of cells marked by multiple barcodes. Three weeks after transduction, cells were sorted for GFP expression to select cells with barcode insertion, and used for drug treatment.\nBulk lineage barcode library preparation and sequencing. Lineage barcodes are recovered by isolating genomic DNA from cells of interest (NucleoSpin Tissue, Mini kit for DNA from cells and tissue, Macherey Nagel, Ref: 740952.50). From the isolated genomic DNA, barcodes are amplified with three nested PCR steps as decribed in^30 (see Extended Table 1 for primer sequence). In short, after a first specific PCR for the common region of the lineage barcodes, the amplified material was prepared for sequencing by addition of the illumina sequencing adaptaters and indexing and purification. Sequencing was done in order to obtain 50 reads, on average, per barcoded cell.\nSingle-cell lineage barcode extraction from 10× datasets. […] To avoid running scripts on all reads we: 1. used samtools to extract all unmapped reads from the 10× output bam file, 2. used awk to take reads with either a 3′ or 5′ 20 bp match to the constant flanking region of the barcode allowing one mismatch, 3. retained only reads with both a 10× cell barcode and 10× UMI. We then located the 20 bp match to one of the constant flanking regions allowing one mismatch (but filtered out reads where a mismatch was in the first or last base to ensure the barcode is at the expected position). We then further required a 4 bp exact match on the other side of the barcode, and then extracted the 20 bp viral barcode, read name, 10× cell barcode and 10× UMI.\nTo assign one viral barcode to each 10× cell barcode, we determined a consensus viral barcode for each UMI. For each position in the barcode we returned the most frequently observed base and the proportion of reads supporting this consensus. Barcodes associated with a 10× CB-UMI pair were filtered if the proportion of reads supporting a position was ≤0.5 at ≥3 positions. […]\nBulk barcode pre-processing. […] In brief, using R-3.4.0 (R Development Core Team (2019) http://www.R-project.org), raw reads were first filtered for perfect to the input index-and common-sequences using XCALIBR (https://github.com/NKI-GCF/xcalibr) and filtered against the barcode reference list. […]"}, "[7]": {"tested_on": "MDA-MB-468", "experiment": "Colony forming assay and persister cell count, 5-FU with KDM6A/Bi", "assay_type": "cell-based, human", "procedure": "as §1, with “serum. All cell lines were cultured in a humidified 5% CO2 atmosphere at 37° C., and were tested as mycoplasma negative.” for “serum.”\n(§2) Colony forming assay. TBNC cells were plated in 6 multi-well plates at a density of 200,000 cells per well and treated with the indicated drugs for 60 days (MDA-MB-468, FIG. 5a/b and Extended FIG. 9b) or 56 days (BT20) or 50 days (HCC38) (Extended FIG. 9). Cultures were incubated in humidified 37° C. incubators with an atmosphere of 5% CO2 in air, and treated plates were monitored for growth using a microscope. At the time of maximum foci formation, colony formation was evaluated after a staining with 0.5% Crystal Violet (Sigma, ref: C 3886)."}, "[8]": {"tested_on": "BT20 and HCC38", "experiment": "Colony forming assay, 5-FU with KDM6A/Bi, additional TNBC cell lines", "assay_type": "cell-based, human", "settings": "BT20 and HCC38, 5-FU", "procedure": "as §1, with “serum. All cell lines were cultured in a humidified 5% CO2 atmosphere at 37° C., and were tested as mycoplasma negative.” for “serum.”\nas §2"}, "[9]": {"tested_on": "tumors in mice", "experiment": "Capecitabine and GSK-J4 treatment of mice, tumor volume and disease-free survival", "assay_type": "in vivo", "procedure": "FIG. 5c: Five mice were treated intraperitoneally with DMSO, five mice were treated intraperitoneally with GSK-J4 alone at a dose of 50 mg/kg, 5 d/week for 25 days. Twenty-five mice were treated orally with Capecitabine at a dose of 540 mg/kg, 5 d/week for 36 days and twenty-five mice were co-treated with Capecitabine and GSK-J4 for 36 days. Tumor volumes (mm3) were measured to follow recurrence. FIG. 5d: Disease-free survival was defined as the number of days between the observation of a complete response (relative tumor volume RTV compared to volume at onset of treatment<0.2) after the first round of Capecitabine treatment, and the appearance of a recurrent tumor (RTV>3). Statistical analysis was performed using a log-rank test."}},
  "data": [
    {"compound": "O=c1[nH]cc(F)c(=O)[nH]1", "note": "[5-FU, Fluorouracil]", "values": [
      {"measurement": "cells surviving drug insult", "setting": "[1]; MDA-MB-468, 5-FU, after 3 weeks", "value": "0.01 % of the initial population"},
      {"measurement": "time until surviving cells started proliferating again under chemotherapy", "setting": "[1]; MDA-MB-468 persister cells under 5-FU", "value": "10 to 15", "unit": "days"},
      {"measurement": "IC50 to 5-FU of resistant cells relative to untreated population", "setting": "[2]", "value": "over 4 fold"}
    ]},
    {"compound": "CCCCCOC(=O)Nc1nc(=O)n([C@@H]2O[C@H](C)[C@@H](O)[C@H]2O)cc1F", "note": "[Capecitabine]", "values": [
      {"measurement": "tumor response to first round of chemotherapy", "setting": "[3]", "value": "mice displayed a pathological complete response (pCR), but tumors eventually recurred"}
    ]},
    {"compound": "CC[C@H](C)n1cc(C)c2c(C(=O)NCc3c(C)cc(C)[nH]c3=O)cc(-c3ccc(N4CCNCC4)nc3)cc21", "note": "[EZH2i-2]", "values": [
      {"measurement": "number of persister cells", "setting": "[4]", "value": "increased the number of persister cells"},
      {"measurement": "EZH2 protein levels", "setting": "[5]", "value": "without perturbing EZH2 protein levels"},
      {"measurement": "H3K27me3 level", "setting": "[5]", "value": "erasing H3K27me3"},
      {"measurement": "correlation scores between lineage frequencies in 5-FU and DMSO treated population", "setting": "[6]", "value": "increased correlation scores"}
    ]},
    {"compound": "CCOC(=O)CCNc1cc(N2CCc3ccccc3CC2)nc(-c2ccccn2)n1", "note": "[GSK-J4]", "values": [
      {"measurement": "effect when administered once persister cells have emerged", "setting": "[7]; added after onset of 5-FU rather than in combination", "value": "inefficient"},
      {"measurement": "number of persisters at day 21", "setting": "[7]; co-treatment with 5-FU", "value": "decrease in the number of persisters"},
      {"measurement": "growth of persister cells under 5-FU at day 60", "setting": "[7]; co-treatment with 5-FU, colony forming assay", "value": "completely abolished the growth of persister cells"},
      {"measurement": "effect on untreated cancer cells", "setting": "[7]; without 5-FU", "value": "no effect on untreated cancer cells"},
      {"measurement": "confirmation of KDM6i effects on persister cells", "setting": "[8]", "value": "confirmed"},
      {"measurement": "toxicity for the mice", "setting": "[9]; GSK-J4 50 mg/kg intraperitoneally", "value": "nor was toxic for the mice"},
      {"measurement": "tumor progression in absence of chemotherapy", "setting": "[9]; GSK-J4 alone, 50 mg/kg intraperitoneally", "value": "did not inhibit tumor progression"},
      {"measurement": "delay to recurrence (disease-free survival)", "setting": "[9]; in combination with Capecitabine versus Capecitabine alone, n=25 each, p=4.0e-2", "value": "significantly increased the delay to recurrence"}
    ]},
    {"compound": "CCCc1cc(C)n(C)c(=O)c1CN(C)C(=O)c1cc(-c2ccc(N3CCN(C(C)C)CC3)nc2)cc2c1cnn2C(C)C", "note": "[UNC240034]", "values": [
      {"measurement": "number of persister cells", "setting": "[4]", "value": "no effect"},
      {"measurement": "correlation scores between lineage frequencies in 5-FU and DMSO treated population", "setting": "[6]", "value": "no effect on lineage frequencies"}
    ]}
  ]
}
